Reference: patent US20100041089A1, “IMPROVED METHOD FOR DETECTING CHEMICAL […]” (priority 2006, published 2010)

System: yeast genes (expressed mRNA)
Experiment: DNA chip measurement of expressed mRNA of yeast genes after culture with a toxic chemical substance
Format: cell-based, Saccharomyces cerevisiae S288C
Method in brief: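 Two-hour exposure of growing S. cerevisiae S288C (YPD, 25° C) to a sublethal toxicant preceded RNA isolation. Fluorescent cDNA was hybridized to a whole-genome array; a treated-to-untreated signal ratio of two or more was taken as significant.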

CCCCCCCCCCCCOS(=O)(=O)[O-].[Na+] [(18), Sodium lauryl sulfate]
The level of expressed mRNA in the presence of chemical substance/The level of expressed mRNA in the absence of chemical substance (yeast gene YJR054W, cultured two hours with substance): 0.9
The level of expressed mRNA in the presence of chemical substance/The level of expressed mRNA in the absence of chemical substance (yeast gene YKL034W, cultured two hours with substance): 1.2
The level of expressed mRNA in the presence of chemical substance/The level of expressed mRNA in the absence of chemical substance (yeast gene YKL071W, cultured two hours with substance): 0.9
The level of expressed mRNA in the presence of chemical substance/The level of expressed mRNA in the absence of chemical substance (yeast gene YKL086W, cultured two hours with substance): 1.0
The level of expressed mRNA in the presence of chemical substance/The level of expressed mRNA in the absence of chemical substance (yeast gene YKL151C, cultured two hours with substance): 1.8
The level of expressed mRNA in the presence of chemical substance/The level of expressed mRNA in the absence of chemical substance (yeast gene YKL153W, cultured two hours with substance): 1.3
The level of expressed mRNA in the presence of chemical substance/The level of expressed mRNA in the absence of chemical substance (yeast gene YKL195W, cultured two hours with substance): 1.6
The level of expressed mRNA in the presence of chemical substance/The level of expressed mRNA in the absence of chemical substance (yeast gene YKR049C, cultured two hours with substance): 3.3
The level of expressed mRNA in the presence of chemical substance/The level of expressed mRNA in the absence of chemical substance (yeast gene YKR091W, cultured two hours with substance): 1.3
The level of expressed mRNA in the presence of chemical substance/The level of expressed mRNA in the absence of chemical substance (yeast gene YLL056C, cultured two hours with substance): 2.5
The level of expressed mRNA in the presence of chemical substance/The level of expressed mRNA in the absence of chemical substance (yeast gene YLR008C, cultured two hours with substance): 4.9
The level of expressed mRNA in the presence of chemical substance/The level of expressed mRNA in the absence of chemical substance (yeast gene YLR031W, cultured two hours with substance): 1.2
The level of expressed mRNA in the presence of chemical substance/The level of expressed mRNA in the absence of chemical substance (yeast gene YLR046C (detoxification protein gene)): 5.4
The level of expressed mRNA in the presence of chemical substance/The level of expressed mRNA in the absence of chemical substance (yeast gene YLR054C, cultured two hours with substance): 1.1
The level of expressed mRNA in the presence of chemical substance/The level of expressed mRNA in the absence of chemical substance (yeast gene YLR149C, cultured two hours with substance): 3.0
The level of expressed mRNA in the presence of chemical substance/The level of expressed mRNA in the absence of chemical substance (yeast gene YLR152C, cultured two hours with substance): 1.8
The level of expressed mRNA in the presence of chemical substance/The level of expressed mRNA in the absence of chemical substance (yeast gene YLR194C, cultured two hours with substance): 0.9
The level of expressed mRNA in the presence of chemical substance/The level of expressed mRNA in the absence of chemical substance (yeast gene YLR324W, cultured two hours with substance): 1.2
The level of expressed mRNA in the presence of chemical substance/The level of expressed mRNA in the absence of chemical substance (yeast gene YLR327C): 5.3
The level of expressed mRNA in the presence of chemical substance/The level of expressed mRNA in the absence of chemical substance (yeast gene YLR346C, cultured two hours with substance): 7.8
The level of expressed mRNA in the presence of chemical substance/The level of expressed mRNA in the absence of chemical substance (yeast gene YLR350W, cultured two hours with substance): 1.1
The level of expressed mRNA in the presence of chemical substance/The level of expressed mRNA in the absence of chemical substance (yeast gene YLR387C, cultured two hours with substance): 1.4
The level of expressed mRNA in the presence of chemical substance/The level of expressed mRNA in the absence of chemical substance (yeast gene YLR460C, cultured two hours with substance): 1.1
The level of expressed mRNA in the presence of chemical substance/The level of expressed mRNA in the absence of chemical substance (yeast gene YML117W, cultured two hours with substance): 1.3
The level of expressed mRNA in the presence of chemical substance/The level of expressed mRNA in the absence of chemical substance (yeast gene YML128C, cultured two hours with substance): 5.5
The level of expressed mRNA in the presence of chemical substance/The level of expressed mRNA in the absence of chemical substance (yeast gene YMR009W, cultured two hours with substance): 2.5
The level of expressed mRNA in the presence of chemical substance/The level of expressed mRNA in the absence of chemical substance (yeast gene YMR067C, cultured two hours with substance): 1.0
The level of expressed mRNA in the presence of chemical substance/The level of expressed mRNA in the absence of chemical substance (yeast gene YMR090W, cultured two hours with substance): 2.8
The level of expressed mRNA in the presence of chemical substance/The level of expressed mRNA in the absence of chemical substance (yeast gene YMR095C, cultured two hours with substance): 1.0
The level of expressed mRNA in the presence of chemical substance/The level of expressed mRNA in the absence of chemical substance (yeast gene YMR097C, cultured two hours with substance): 1.8
The level of expressed mRNA in the presence of chemical substance/The level of expressed mRNA in the absence of chemical substance (yeast gene YMR102C, cultured two hours with substance): 2.8
The level of expressed mRNA in the presence of chemical substance/The level of expressed mRNA in the absence of chemical substance (yeast gene YMR107W, cultured two hours with substance): 8.1
The level of expressed mRNA in the presence of chemical substance/The level of expressed mRNA in the absence of chemical substance (yeast gene YMR180C, cultured two hours with substance): 1.7
The level of expressed mRNA in the presence of chemical substance/The level of expressed mRNA in the absence of chemical substance (yeast gene YMR184W, cultured two hours with substance): 2.0
The level of expressed mRNA in the presence of chemical substance/The level of expressed mRNA in the absence of chemical substance (yeast gene YMR191W, cultured two hours with substance): 2.1
The level of expressed mRNA in the presence of chemical substance/The level of expressed mRNA in the absence of chemical substance (yeast gene YMR295C, cultured two hours with substance): 3.4
The level of expressed mRNA in the presence of chemical substance/The level of expressed mRNA in the absence of chemical substance (yeast gene YMR316W, cultured two hours with substance): 6.4
The level of expressed mRNA in the presence of chemical substance/The level of expressed mRNA in the absence of chemical substance (yeast gene YNL044W, cultured two hours with substance): 3.4
The level of expressed mRNA in the presence of chemical substance/The level of expressed mRNA in the absence of chemical substance (yeast gene YNL074C, cultured two hours with substance): 1.3
The level of expressed mRNA in the presence of chemical substance/The level of expressed mRNA in the absence of chemical substance (yeast gene YNL092W, cultured two hours with substance): 1.6
The level of expressed mRNA in the presence of chemical substance/The level of expressed mRNA in the absence of chemical substance (yeast gene YNL115C, cultured two hours with substance): 2.6
The level of expressed mRNA in the presence of chemical substance/The level of expressed mRNA in the absence of chemical substance (yeast gene YNL156C, cultured two hours with substance): 1.9
The level of expressed mRNA in the presence of chemical substance/The level of expressed mRNA in the absence of chemical substance (yeast gene YNL190W, cultured two hours with substance): 0.8
The level of expressed mRNA in the presence of chemical substance/The level of expressed mRNA in the absence of chemical substance (yeast gene YNL208W, cultured two hours with substance): 1.0
The level of expressed mRNA in the presence of chemical substance/The level of expressed mRNA in the absence of chemical substance (yeast gene YNL211C, cultured two hours with substance): 6.8
The level of expressed mRNA in the presence of chemical substance/The level of expressed mRNA in the absence of chemical substance (yeast gene YNL234W, cultured two hours with substance): 1.0
The level of expressed mRNA in the presence of chemical substance/The level of expressed mRNA in the absence of chemical substance (yeast gene YNL281W, cultured two hours with substance): 0.9
The level of expressed mRNA in the presence of chemical substance/The level of expressed mRNA in the absence of chemical substance (yeast gene YNL300W, cultured two hours with substance): 0.8
The level of expressed mRNA in the presence of chemical substance/The level of expressed mRNA in the absence of chemical substance (yeast gene YNL305C, cultured two hours with substance): 1.6
The level of expressed mRNA in the presence of chemical substance/The level of expressed mRNA in the absence of chemical substance (yeast gene YNR064C, cultured two hours with substance): 1.9
The level of expressed mRNA in the presence of chemical substance/The level of expressed mRNA in the absence of chemical substance (yeast gene YNR068C, cultured two hours with substance): 1.0
The level of expressed mRNA in the presence of chemical substance/The level of expressed mRNA in the absence of chemical substance (yeast gene YOL032W, cultured two hours with substance): 1.8
The level of expressed mRNA in the presence of chemical substance/The level of expressed mRNA in the absence of chemical substance (yeast gene YOL036W, cultured two hours with substance): 0.9
The level of expressed mRNA in the presence of chemical substance/The level of expressed mRNA in the absence of chemical substance (yeast gene YOL047C, cultured two hours with substance): 1.0
The level of expressed mRNA in the presence of chemical substance/The level of expressed mRNA in the absence of chemical substance (yeast gene YOL071W, cultured two hours with substance): 2.0
The level of expressed mRNA in the presence of chemical substance/The level of expressed mRNA in the absence of chemical substance (yeast gene YOL073C, cultured two hours with the chemical substance): 1.2
The level of expressed mRNA in the presence of chemical substance/The level of expressed mRNA in the absence of chemical substance (yeast gene YOL082W, cultured two hours with substance): 2.5
The level of expressed mRNA in the presence of chemical substance/The level of expressed mRNA in the absence of chemical substance (yeast gene YOL083W, cultured two hours with substance): 3.2
The level of expressed mRNA in the presence of chemical substance/The level of expressed mRNA in the absence of chemical substance (yeast gene YOL117W, cultured two hours with substance): 1.4
The level of expressed mRNA in the presence of chemical substance/The level of expressed mRNA in the absence of chemical substance (yeast gene YOL131W, cultured two hours with substance): 0.9
The level of expressed mRNA in the presence of chemical substance/The level of expressed mRNA in the absence of chemical substance (yeast gene YOL150C, cultured two hours with substance): 2.2
The level of expressed mRNA in the presence of chemical substance/The level of expressed mRNA in the absence of chemical substance (yeast gene YOL162W, cultured two hours with substance): 0.9
The level of expressed mRNA in the presence of chemical substance/The level of expressed mRNA in the absence of chemical substance (yeast gene YOR019W, cultured two hours with substance): 2.8
The level of expressed mRNA in the presence of chemical substance/The level of expressed mRNA in the absence of chemical substance (yeast gene YOR161C, cultured two hours with the chemical substance): 1.2
The level of expressed mRNA in the presence of chemical substance/The level of expressed mRNA in the absence of chemical substance (yeast gene YOR173W, cultured two hours with substance): 3.8
The level of expressed mRNA in the presence of chemical substance/The level of expressed mRNA in the absence of chemical substance (yeast gene YOR197W, cultured two hours with substance): 1.5
The level of expressed mRNA in the presence of chemical substance/The level of expressed mRNA in the absence of chemical substance (yeast gene YOR248W, cultured two hours with substance): 0.8
The level of expressed mRNA in the presence of chemical substance/The level of expressed mRNA in the absence of chemical substance (yeast gene YOR289W, cultured two hours with substance): 3.9
The level of expressed mRNA in the presence of chemical substance/The level of expressed mRNA in the absence of chemical substance (yeast gene YPL052W, cultured two hours with substance): 1.5
The level of expressed mRNA in the presence of chemical substance/The level of expressed mRNA in the absence of chemical substance (yeast gene YPL087W, cultured two hours with substance): 2.7
The level of expressed mRNA in the presence of chemical substance/The level of expressed mRNA in the absence of chemical substance (yeast gene YPL196W, cultured two hours with substance): 2.3
The level of expressed mRNA in the presence of chemical substance/The level of expressed mRNA in the absence of chemical substance (yeast gene YPL206C, cultured two hours with substance): 1.9
The level of expressed mRNA in the presence of chemical substance/The level of expressed mRNA in the absence of chemical substance (yeast gene YPL222W, cultured two hours with substance): 0.9
The level of expressed mRNA in the presence of chemical substance/The level of expressed mRNA in the absence of chemical substance (yeast gene YPL272C, cultured two hours with the chemical substance): 1.2
The level of expressed mRNA in the presence of chemical substance/The level of expressed mRNA in the absence of chemical substance (yeast gene YPR023C, cultured two hours with substance): 1.1
The level of expressed mRNA in the presence of chemical substance/The level of expressed mRNA in the absence of chemical substance (yeast gene YPR079W, cultured two hours with substance): 1.5
The level of expressed mRNA in the presence of chemical substance/The level of expressed mRNA in the absence of chemical substance (yeast gene YPR127W, cultured two hours with substance): 1.2
The level of expressed mRNA in the presence of chemical substance/The level of expressed mRNA in the absence of chemical substance (yeast gene YPR151C, cultured two hours with substance): 1.4
